Reference: patent US10670605B2, “Cysteine reactive probes and uses thereof” (The Scripps Research Institute, priority 2015, dated 2020)

Key:
Assay in all cases: Competitive isoTOP-ABPP, cell lysates
Format in all cases: binding
UBE2S C118 (Q16763) = target: T1, UBE2S C118 (Q16763) (Homo sapiens, UniProt Q16763); conditions: for isoTOP-ABPP ratio, Q16763_C118: 500 μM, invitro; for isoTOP-ABPP reactivity ratio, Q16763_C118: 500 μm
T1 sequence (Q16763 1-222): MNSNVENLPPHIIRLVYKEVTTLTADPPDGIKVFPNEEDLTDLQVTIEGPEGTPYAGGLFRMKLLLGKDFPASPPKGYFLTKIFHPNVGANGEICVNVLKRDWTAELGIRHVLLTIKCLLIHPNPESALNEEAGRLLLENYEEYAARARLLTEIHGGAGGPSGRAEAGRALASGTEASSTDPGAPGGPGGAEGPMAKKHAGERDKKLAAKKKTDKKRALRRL

XPO1 C528 (O14980) = XPO1 C528 (O14980) (Homo sapiens, UniProt O14980); conditions: for isoTOP-ABPP ratio O14980_C528: 500 μM, invitro, 231; for isoTOP-ABPP reactivity ratio, O14980_C528: 500 μm
XPO1 C34 (O14980) = XPO1 C34 (O14980) (Homo sapiens, UniProt O14980); conditions: for isoTOP-ABPP ratio, O14980_C34: 500 μM, invitro; for isoTOP-ABPP reactivity ratio, O14980_C34: 500 μm
PDIA6 C55 (Q15084) = target: T2, PDIA6 C55 (Q15084) (Homo sapiens, UniProt Q15084); conditions: for isoTOP-ABPP ratio Q15084_C55: 500 μM, invitro; for isoTOP-ABPP reactivity ratio, Q15084_C55: 500 μm
T2 sequence (Q15084 20-440): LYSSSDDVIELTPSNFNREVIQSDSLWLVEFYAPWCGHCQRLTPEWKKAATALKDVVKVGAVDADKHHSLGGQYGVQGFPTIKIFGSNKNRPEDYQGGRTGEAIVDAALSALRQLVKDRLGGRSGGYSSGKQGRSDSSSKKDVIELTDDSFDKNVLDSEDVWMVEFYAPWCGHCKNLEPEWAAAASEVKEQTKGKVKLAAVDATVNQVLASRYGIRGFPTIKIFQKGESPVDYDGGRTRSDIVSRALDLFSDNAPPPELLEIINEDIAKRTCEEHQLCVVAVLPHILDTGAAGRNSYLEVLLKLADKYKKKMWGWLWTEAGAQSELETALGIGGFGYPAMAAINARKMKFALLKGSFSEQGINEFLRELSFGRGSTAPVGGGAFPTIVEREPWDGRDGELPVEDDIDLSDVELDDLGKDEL

PDIA6 C190 (Q15084) = target: T3, PDIA6 C190 (Q15084) (Homo sapiens, UniProt Q15084); conditions: for isoTOP-ABPP ratio, Q15084_C190: 500 μM, invitro, ramos; for isoTOP-ABPP reactivity ratio, Q15084_C190: 500 μm
T3 sequence (Q15084 20-440): T2 sequence (Q15084 20-440)

SMARCC2 C145 (Q8TAQ2) = SMARCC2 C145 (Q8TAQ2) (Homo sapiens, UniProt Q8TAQ2); conditions: for isoTOP-ABPP ratio Q8TAQ2_C145: 500 μM, invitro; for isoTOP-ABPP reactivity ratio, Q8TAQ2_C145: 500 μm
GSTP1 C48 (P09211) = GSTP1 C48 (P09211) (Homo sapiens, UniProt P09211); conditions: for isoTOP-ABPP ratio, P09211_C48: 500 μM, invitro; for isoTOP-ABPP reactivity ratio, P09211_C48: 500 μm
ACAT1 C126 (P24752) = target: T4, ACAT1 C126 (P24752) (Homo sapiens, UniProt P24752); conditions: for isoTOP-ABPP ratio, P24752_C126: 500 μM, invitro; for isoTOP-ABPP reactivity ratio, P24752_C126: 500 μm
T4 sequence (P24752 34-427): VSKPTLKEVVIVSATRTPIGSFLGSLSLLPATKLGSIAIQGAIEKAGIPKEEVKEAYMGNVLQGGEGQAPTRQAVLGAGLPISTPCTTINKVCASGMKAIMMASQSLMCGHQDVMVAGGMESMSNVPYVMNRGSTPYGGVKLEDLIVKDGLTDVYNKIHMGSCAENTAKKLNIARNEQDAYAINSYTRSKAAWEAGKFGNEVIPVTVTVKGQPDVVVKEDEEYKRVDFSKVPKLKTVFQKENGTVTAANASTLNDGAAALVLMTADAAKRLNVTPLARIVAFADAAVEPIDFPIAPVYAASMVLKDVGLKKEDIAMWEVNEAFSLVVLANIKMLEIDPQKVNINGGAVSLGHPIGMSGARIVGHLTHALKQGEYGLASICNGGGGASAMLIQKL

ACAT1 C119 (P24752) = target: T5, ACAT1 C119 (P24752) (Homo sapiens, UniProt P24752); conditions: for isoTOP-ABPP ratio P24752_C119: 500 μM, invitro; for isoTOP-ABPP reactivity ratio, P24752_C119: 500 μm
T5 sequence (P24752 34-427): T4 sequence (P24752 34-427)

SMARCC2 C145 (Q8TAQ2), sequence (Q8TAQ2 whole entry): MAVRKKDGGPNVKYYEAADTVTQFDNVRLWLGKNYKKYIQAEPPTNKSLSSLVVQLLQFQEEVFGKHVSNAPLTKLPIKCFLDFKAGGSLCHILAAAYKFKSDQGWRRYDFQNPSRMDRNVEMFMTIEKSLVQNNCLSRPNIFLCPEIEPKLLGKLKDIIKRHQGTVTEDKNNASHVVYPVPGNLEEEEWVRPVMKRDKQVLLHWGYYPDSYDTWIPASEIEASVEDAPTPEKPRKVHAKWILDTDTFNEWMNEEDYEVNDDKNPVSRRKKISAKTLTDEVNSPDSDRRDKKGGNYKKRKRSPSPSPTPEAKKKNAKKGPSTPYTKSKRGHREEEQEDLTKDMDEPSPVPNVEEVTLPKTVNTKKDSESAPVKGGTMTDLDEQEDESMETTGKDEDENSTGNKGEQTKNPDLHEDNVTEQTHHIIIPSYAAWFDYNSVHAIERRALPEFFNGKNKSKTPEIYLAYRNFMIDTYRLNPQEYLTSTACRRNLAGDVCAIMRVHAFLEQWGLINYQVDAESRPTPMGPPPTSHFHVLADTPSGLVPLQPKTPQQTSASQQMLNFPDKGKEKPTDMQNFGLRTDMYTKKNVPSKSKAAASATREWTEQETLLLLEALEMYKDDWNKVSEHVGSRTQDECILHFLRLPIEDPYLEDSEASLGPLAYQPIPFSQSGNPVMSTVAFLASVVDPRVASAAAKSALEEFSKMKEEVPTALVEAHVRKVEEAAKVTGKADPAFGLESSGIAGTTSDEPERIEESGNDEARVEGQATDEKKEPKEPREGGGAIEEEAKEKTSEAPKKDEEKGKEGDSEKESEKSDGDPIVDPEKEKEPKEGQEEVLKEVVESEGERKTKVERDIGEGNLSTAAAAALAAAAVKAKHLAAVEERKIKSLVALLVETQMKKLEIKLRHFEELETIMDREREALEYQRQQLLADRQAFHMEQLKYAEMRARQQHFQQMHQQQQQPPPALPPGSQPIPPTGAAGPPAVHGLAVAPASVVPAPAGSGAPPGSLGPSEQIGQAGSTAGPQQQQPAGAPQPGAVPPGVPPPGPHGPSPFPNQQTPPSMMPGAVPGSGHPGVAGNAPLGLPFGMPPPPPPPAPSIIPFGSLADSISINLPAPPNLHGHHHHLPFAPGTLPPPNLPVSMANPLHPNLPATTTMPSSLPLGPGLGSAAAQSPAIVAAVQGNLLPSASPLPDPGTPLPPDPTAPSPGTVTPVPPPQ
XPO1 C528 (O14980), sequence (O14980 whole entry): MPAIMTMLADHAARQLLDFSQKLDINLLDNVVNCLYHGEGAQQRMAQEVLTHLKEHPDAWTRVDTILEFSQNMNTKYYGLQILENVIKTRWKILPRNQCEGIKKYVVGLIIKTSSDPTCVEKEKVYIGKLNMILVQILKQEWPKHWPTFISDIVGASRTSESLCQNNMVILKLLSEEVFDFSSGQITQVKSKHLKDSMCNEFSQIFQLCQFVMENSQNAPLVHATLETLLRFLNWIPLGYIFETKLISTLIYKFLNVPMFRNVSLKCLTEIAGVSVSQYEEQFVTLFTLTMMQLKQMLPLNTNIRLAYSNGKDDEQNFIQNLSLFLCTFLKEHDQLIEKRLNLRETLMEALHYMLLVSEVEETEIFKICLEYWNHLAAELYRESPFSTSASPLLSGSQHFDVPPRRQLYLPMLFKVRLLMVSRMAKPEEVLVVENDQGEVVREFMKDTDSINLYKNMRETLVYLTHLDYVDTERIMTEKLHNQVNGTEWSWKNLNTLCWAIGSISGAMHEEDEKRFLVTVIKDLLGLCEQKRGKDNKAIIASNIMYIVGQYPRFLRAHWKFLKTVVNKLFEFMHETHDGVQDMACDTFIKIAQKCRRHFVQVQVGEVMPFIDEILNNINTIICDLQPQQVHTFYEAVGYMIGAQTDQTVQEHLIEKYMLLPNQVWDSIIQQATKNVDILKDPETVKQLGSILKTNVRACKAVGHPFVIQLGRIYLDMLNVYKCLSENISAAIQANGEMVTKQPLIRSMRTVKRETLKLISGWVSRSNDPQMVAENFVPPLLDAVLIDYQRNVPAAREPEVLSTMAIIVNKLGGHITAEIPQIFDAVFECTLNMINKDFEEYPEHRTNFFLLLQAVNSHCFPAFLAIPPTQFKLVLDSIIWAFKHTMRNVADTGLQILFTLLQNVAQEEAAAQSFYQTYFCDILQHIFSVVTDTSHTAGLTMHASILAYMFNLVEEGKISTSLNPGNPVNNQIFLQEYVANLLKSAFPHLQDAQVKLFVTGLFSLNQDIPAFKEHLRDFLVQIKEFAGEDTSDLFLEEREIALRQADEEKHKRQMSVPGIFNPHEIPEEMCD
XPO1 C34 (O14980), sequence (O14980 whole entry): as above
GSTP1 C48 (P09211), sequence (P09211 whole entry): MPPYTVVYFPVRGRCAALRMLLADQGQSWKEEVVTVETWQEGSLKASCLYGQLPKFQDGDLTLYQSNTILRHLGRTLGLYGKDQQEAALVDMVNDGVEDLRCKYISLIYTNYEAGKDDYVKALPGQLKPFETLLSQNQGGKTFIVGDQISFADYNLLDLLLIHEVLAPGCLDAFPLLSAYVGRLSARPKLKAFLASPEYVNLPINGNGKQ

isoTOP-ABPP ratio O14980_C528 (XPO1 C528 (O14980)) | isoTOP-ABPP ratio, O14980_C34 (XPO1 C34 (O14980); 231) | isoTOP-ABPP ratio, O14980_C34 (XPO1 C34 (O14980); ramos) | isoTOP-ABPP ratio Q15084_C55 (PDIA6 C55 (Q15084); 231) | isoTOP-ABPP ratio, Q15084_C190 (PDIA6 C190 (Q15084)) | isoTOP-ABPP ratio Q8TAQ2_C145 (SMARCC2 C145 (Q8TAQ2); 231) | isoTOP-ABPP ratio, P09211_C48 (GSTP1 C48 (P09211); 231) | isoTOP-ABPP ratio, P09211_C48 (GSTP1 C48 (P09211); ramos) | isoTOP-ABPP ratio, P24752_C126 (ACAT1 C126 (P24752); 231) | isoTOP-ABPP ratio, P24752_C126 (ACAT1 C126 (P24752); ramos) | isoTOP-ABPP ratio P24752_C119 (ACAT1 C119 (P24752); 231) | isoTOP-ABPP ratio P24752_C119 (ACAT1 C119 (P24752); ramos) | isoTOP-ABPP reactivity ratio, Q16763_C118 (UBE2S C118 (Q16763); in-vitro_ramos) | isoTOP-ABPP reactivity ratio, O14980_C528 (XPO1 C528 (O14980); in-vitro_ramos_231) | isoTOP-ABPP reactivity ratio, O14980_C34 (XPO1 C34 (O14980); in-vitro_ramos) | isoTOP-ABPP reactivity ratio, O14980_C34 (XPO1 C34 (O14980); in-vitro_ramos_231) | isoTOP-ABPP reactivity ratio, Q15084_C55 (PDIA6 C55 (Q15084); in-vitro_ramos) | isoTOP-ABPP reactivity ratio, Q15084_C55 (PDIA6 C55 (Q15084); in-vitro_ramos_231) | isoTOP-ABPP reactivity ratio, Q15084_C190 (PDIA6 C190 (Q15084); in-vitro_ramos_231) | isoTOP-ABPP reactivity ratio, Q8TAQ2_C145 (SMARCC2 C145 (Q8TAQ2); in-vitro_ramos) | Compound | further results
1.1 | 1.2 | 0.7 | 3.7 | 20.0 | 2.8 | 2.9 | 1.1 | 1.0 | 1.1 | 1.0 | 0.7 |  |  |  |  |  |  |  |  | O=C(CCl)NC(=O)NC12CC3CC(CC(C3)C1)C2 [compound 12] | isoTOP-ABPP ratio, Q16763_C118 (UBE2S C118 (Q16763); ramos): 0.6; isoTOP-ABPP ratio Q15084_C55 (PDIA6 C55 (Q15084); ramos): 3.1; isoTOP-ABPP ratio Q8TAQ2_C145 (SMARCC2 C145 (Q8TAQ2); ramos): 1.6
 |  |  |  |  |  |  |  |  |  |  |  |  |  |  |  |  |  |  |  | O=C(CCl)NC12CC3CC(CC(C3)C1)C2 [compound 21] | isoTOP-ABPP ratio (reactivity profile), Q16763_C118 (UBE2S C118 (Q16763); 500 μm in-vitro ramos_231): 0.9; isoTOP-ABPP ratio (reactivity profile), O14980_C528 (XPO1 C528 (O14980); 500 μm in-vitro ramos): 0.8; isoTOP-ABPP ratio (reactivity profile), O14980_C528 (XPO1 C528 (O14980); 500 μm in-vitro ramos_231): 0.9; isoTOP-ABPP ratio (reactivity profile), O14980_C34 (XPO1 C34 (O14980); 500 μm in-vitro ramos): 1.2; isoTOP-ABPP ratio (reactivity profile), O14980_C34 (XPO1 C34 (O14980); 500 μm in-vitro ramos_231): 0.9; isoTOP-ABPP ratio (reactivity profile), Q15084_C55 (PDIA6 C55 (Q15084); 500 μm in-vitro ramos): 2.1; isoTOP-ABPP ratio (reactivity profile), Q15084_C55 (PDIA6 C55 (Q15084); 500 μm in-vitro ramos_231): 1.1; isoTOP-ABPP ratio (reactivity profile), Q15084_C190 (PDIA6 C190 (Q15084); 500 μm in-vitro ramos): 2.3; isoTOP-ABPP ratio (reactivity profile), Q15084_C190 (PDIA6 C190 (Q15084); 500 μm in-vitro ramos_231): 1.1; isoTOP-ABPP ratio (reactivity profile), Q8TAQ2_C145 (SMARCC2 C145 (Q8TAQ2); 500 μm in-vitro ramos_231): 1.2; isoTOP-ABPP ratio (reactivity profile), P09211_C48 (GSTP1 C48 (P09211); 500 μm in-vitro ramos): 1.3; isoTOP-ABPP ratio (reactivity profile), P09211_C48 (GSTP1 C48 (P09211); 500 μm in-vitro ramos_231): 1.1; isoTOP-ABPP ratio (reactivity profile), P24752_C126 (ACAT1 C126 (P24752); 500 μm in-vitro ramos): 1.4; isoTOP-ABPP ratio (reactivity profile), P24752_C126 (ACAT1 C126 (P24752); 500 μm in-vitro ramos_231): 1.2; isoTOP-ABPP ratio (reactivity profile), P24752_C119 (ACAT1 C119 (P24752); 500 μm in-vitro ramos): 1.1; isoTOP-ABPP ratio (reactivity profile), P24752_C119 (ACAT1 C119 (P24752); 500 μm in-vitro ramos_231): 0.9
0.8 | 1.2 | 0.7 | 20.0 | 3.3 | 4.2 | 1.4 | 0.8 | 3.2 | 1.5 | 1.5 | 1.4 |  |  |  |  |  |  |  |  | O=C(CCl)N1CCN(S(=O)(=O)c2ccccc2F)CC1 [compound 10] | isoTOP-ABPP ratio, Q16763_C118 (UBE2S C118 (Q16763); 231): 1.7
 |  |  |  |  |  |  |  |  |  |  |  | 3.4 | 0.6 | 2.0 | 3.1 | 0.8 | 0.9 | 1.0 | 2.8 | Cc1ccc(C=C(C#N)C(=O)NCCN2CCOCC2)cc1 [compound 41] | isoTOP-ABPP reactivity ratio, Q8TAQ2_C145 (SMARCC2 C145 (Q8TAQ2); in-vitro_ramos_231): 1.8; isoTOP-ABPP reactivity ratio, P09211_C48 (GSTP1 C48 (P09211); in-vitro_ramos): 0.9; isoTOP-ABPP reactivity ratio, P09211_C48 (GSTP1 C48 (P09211); in-vitro_ramos_231): 1.3; isoTOP-ABPP reactivity ratio, P24752_C126 (ACAT1 C126 (P24752); in-vitro_ramos): 0.9; isoTOP-ABPP reactivity ratio, P24752_C126 (ACAT1 C126 (P24752); in-vitro_ramos_231): 1.0; isoTOP-ABPP reactivity ratio, P24752_C119 (ACAT1 C119 (P24752); in-vitro_ramos): 0.8; isoTOP-ABPP reactivity ratio, P24752_C119 (ACAT1 C119 (P24752); in-vitro_ramos_231): 1.0
 |  |  |  |  |  |  |  |  |  |  |  | 1.1 | 1.7 | 1.0 | 1.2 | 20.0 | 20.0 | 20.0 | 20.0 | CC(C)(C)c1cc(NC(=O)CCl)on1 [compound 32] | isoTOP-ABPP reactivity ratio, Q16763_C118 (UBE2S C118 (Q16763); in-vitro_ramos_231): 1.1; isoTOP-ABPP reactivity ratio, O14980_C528 (XPO1 C528 (O14980); in-vitro_ramos): 1.2; isoTOP-ABPP reactivity ratio, Q15084_C190 (PDIA6 C190 (Q15084); in-vitro_ramos): 20.0; isoTOP-ABPP reactivity ratio, Q8TAQ2_C145 (SMARCC2 C145 (Q8TAQ2); in-vitro_ramos_231): 20.0; isoTOP-ABPP reactivity ratio, P09211_C48 (GSTP1 C48 (P09211); in-vitro_ramos): 1.4; isoTOP-ABPP reactivity ratio, P09211_C48 (GSTP1 C48 (P09211); in-vitro_ramos_231): 1.9; isoTOP-ABPP reactivity ratio, P24752_C126 (ACAT1 C126 (P24752); in-vitro_ramos): 8.6; isoTOP-ABPP reactivity ratio, P24752_C126 (ACAT1 C126 (P24752); in-vitro_ramos_231): 7.3; isoTOP-ABPP reactivity ratio, P24752_C119 (ACAT1 C119 (P24752); in-vitro_ramos): 1.3; isoTOP-ABPP reactivity ratio, P24752_C119 (ACAT1 C119 (P24752); in-vitro_ramos_231): 1.7
